In ChEMBL document CHEMBL4495564, “Identification of inhibitors of SARS-Cov2 M-Pro enzymatic activity using a small molecule repurposing screen” (2020):
Values joined by “and” are separate entries in the source; they are usually repeats but may differ in a detail not shown here. Equal values may be shown once. Where a name gives a salt, the structure may show the parent alone.

How the values were obtained:
[1] = target: Chymotrypsin (Homo sapiens) (UniProt Q99895+P17538+P40313+Q6GPI1); test: Chymotrypsin inhibition percentage at 10 µM by FRET kind of response from peptide substrate; format: functional
[2] = target: Replicase polyprotein 1ab (Middle East respiratory syndrome-related coronavirus (isolate UnitedKingdom/H123990006/2012) (Betacoronavirus England 1) (Humancoronavirus EMC), UniProt K9N7C7); test: biochemical; format: functional
[3] = target: Replicase polyprotein 1ab (Middle East respiratory syndrome-related coronavirus (isolate UnitedKingdom/H123990006/2012) (Betacoronavirus England 1) (Humancoronavirus EMC)) (UniProt K9N7C7); conditions: at 10 µM
[4] = target: Replicase polyprotein 1ab (Severe acute respiratory syndrome coronavirus 2, UniProt P0DTD1); test: biochemical; format: functional

Replicase polyprotein 1ab (Middle East respiratory syndrome-related coronavirus (isolate UnitedKingdom/H123990006/2012) (Betacoronavirus England 1) (Humancoronavirus EMC), UniProt K9N7C7), sequence (K9N7C7 3248-3553 limits assumed): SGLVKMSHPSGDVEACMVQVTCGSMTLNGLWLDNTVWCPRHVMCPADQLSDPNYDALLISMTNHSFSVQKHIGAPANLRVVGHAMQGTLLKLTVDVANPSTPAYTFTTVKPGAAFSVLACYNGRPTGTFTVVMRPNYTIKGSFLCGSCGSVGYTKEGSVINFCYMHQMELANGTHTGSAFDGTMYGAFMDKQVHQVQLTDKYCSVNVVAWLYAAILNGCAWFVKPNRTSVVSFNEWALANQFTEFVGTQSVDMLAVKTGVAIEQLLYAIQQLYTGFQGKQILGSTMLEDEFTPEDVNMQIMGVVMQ
Chymotrypsin (Homo sapiens), sequence (Q6GPI1 whole entry, looked up, chain 1 of 4): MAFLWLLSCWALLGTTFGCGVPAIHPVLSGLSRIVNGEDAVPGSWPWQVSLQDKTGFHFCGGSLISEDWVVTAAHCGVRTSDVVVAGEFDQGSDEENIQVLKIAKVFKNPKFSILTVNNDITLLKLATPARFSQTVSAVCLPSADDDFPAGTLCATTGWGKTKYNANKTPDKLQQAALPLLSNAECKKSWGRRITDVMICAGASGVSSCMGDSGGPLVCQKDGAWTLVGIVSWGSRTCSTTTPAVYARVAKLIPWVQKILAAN
Chymotrypsin (Homo sapiens), sequence (P40313 whole entry, looked up, chain 2 of 4): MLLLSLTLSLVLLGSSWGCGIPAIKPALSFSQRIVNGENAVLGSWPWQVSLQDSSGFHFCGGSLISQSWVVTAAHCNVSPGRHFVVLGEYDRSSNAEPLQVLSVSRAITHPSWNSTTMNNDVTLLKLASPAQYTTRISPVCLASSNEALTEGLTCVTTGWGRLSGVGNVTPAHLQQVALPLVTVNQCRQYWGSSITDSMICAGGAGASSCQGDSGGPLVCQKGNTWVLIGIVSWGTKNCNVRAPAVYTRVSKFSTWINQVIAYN
Chymotrypsin (Homo sapiens), sequence (P17538 whole entry, looked up, chain 3 of 4): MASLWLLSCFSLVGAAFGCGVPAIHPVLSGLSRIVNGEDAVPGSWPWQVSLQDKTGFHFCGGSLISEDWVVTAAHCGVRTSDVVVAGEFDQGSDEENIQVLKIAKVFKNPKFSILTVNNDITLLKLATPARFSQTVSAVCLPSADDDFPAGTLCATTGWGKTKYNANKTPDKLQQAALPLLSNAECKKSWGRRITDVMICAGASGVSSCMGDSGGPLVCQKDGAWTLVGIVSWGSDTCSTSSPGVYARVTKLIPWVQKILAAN
Chymotrypsin (Homo sapiens), sequence (Q99895 whole entry, looked up, chain 4 of 4): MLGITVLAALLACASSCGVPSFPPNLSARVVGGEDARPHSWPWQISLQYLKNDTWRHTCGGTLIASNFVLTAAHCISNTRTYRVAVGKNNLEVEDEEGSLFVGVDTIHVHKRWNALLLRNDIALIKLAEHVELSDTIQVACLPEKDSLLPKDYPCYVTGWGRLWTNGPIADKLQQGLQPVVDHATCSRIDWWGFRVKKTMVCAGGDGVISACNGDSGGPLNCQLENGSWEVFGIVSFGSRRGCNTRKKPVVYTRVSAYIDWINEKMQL

| Compound | inhibition [1] [%] | IC50 [2] [µM] | inhibition [3] | also measured |
| --- | --- | --- | --- | --- |
| CCCCCCNC(=O)n1cc(F)c(=O)[nH]c1=O | 14 |  |  |  |
| Sc1nc2ccccc2s1 [2-MERCAPTOBENZOTHIAZOLE] |  | > 10 | 0% |  |
| PHENYLMERCURIC ACETATE | 8.59 |  | 4% |  |
| Oc1cc2c(cc1C(c1ccc(C(F)(F)F)cc1)N1CCOCC1)OCO2 (stereo unspecified) | 7.04 |  |  |  |
| CN(C)C(=S)SSC(=S)N(C)C [THIRAM] |  | > 10 | 48% |  |
| Oc1cc2c(cc1O)[C@H]1c3ccccc3CN[C@@H]1CC2 [DIHYDREXIDINE HYDROCHLORIDE] |  | > 10 | 19% |  |
| Cn1sc(=O)n(Cc2ccccc2)c1=O | 4.03 |  |  |  |
| COCCCOc1ccnc(C[S+]([O-])c2nc3ccccc3[nH]2)c1C (stereo unspecified) [RABEPRAZOLE SODIUM] |  | > 10 | 46% |  |
| Cc1ccc(C)c(-n2sc3cc(F)ccc3c2=O)c1 | -0.52 |  |  |  |
| THIMEROSAL [listing 1 of 2 here] |  |  | 46% |  |
| [O-][n+]1ccccc1S | 8.11 |  |  | inhibition ([3]; tested as the Zn salt or complex): 42% |
| O=c1c(O)c(-c2cc(O)c(O)c(O)c2)oc2cc(O)cc(O)c12 [MYRICETIN] | 3.78 | > 10 | 5% |  |
| O=C(/C=C/c1ccc(O)c(O)c1)O[C@H](Cc1ccc(O)c(O)c1)C(=O)O [ROSMARINIC ACID] |  | > 10 | 19% |  |
| CCC(=O)OCN1C(=O)C=CC1=O |  | > 10 | 0% |  |
| [O-][S+](c1ccccc1)c1ccc2nnnn2n1 (stereo unspecified) |  | 10.1 |  |  |
| CCc1ccc(/C=C/C(=O)Nc2ccc(C(C)=O)cc2)o1 |  |  |  | IC50 [4]: 4.95 µM |
| c1ccc2sc(SSc3nc4ccccc4s3)nc2c1 | 5.04 |  |  |  |
| O=C(c1ccc(/C=C/c2n[nH]c3ccccc23)cc1)N1CCNCC1 [KW-2449] | 3.6 | 3.6 |  |  |
| COc1nc2ccc(Br)cc2cc1[C@@H](c1ccccc1)[C@@](O)(CCN(C)C)c1cccc2ccccc12 [BEDAQUILINE] |  |  |  | IC50 [4]: 4.36 µM |
| CN1CC[C@@]2(C)c3cc(O)ccc3N(C)[C@@H]12 |  | > 10 | 41% |  |
| O=C(O[C@@H]1Cc2c(O)cc(O)cc2O[C@@H]1c1cc(O)c(O)c(O)c1)c1cc(O)c(O)c(O)c1 [EPIGALOCATECHIN GALLATE] | -0.5 | > 10 | 10% and 16% |  |
| CCC(C)SSc1ncc[nH]1 (stereo unspecified) [PX-12] |  | 7.6 |  |  |

| Compound | inhibition [1] [%] | IC50 [2] [µM] | inhibition [3] | also measured |
| --- | --- | --- | --- | --- |
| O=[N+]([O-])C(Br)(CO)CO [BRONOPOL] |  | > 10 | 14% |  |
| Nc1ccc(S(=O)(=O)Nc2ncccn2)cc1 [SULFADIAZINE, SILVER] |  |  |  | IC50 ([2]; tested as the Ag salt or complex): > 10 µM |
| ACRIFLAVINE HYDROCHLORIDE [listing 1 of 2 here] |  | 10 |  | IC50 [4]: 1.93 µM |
| Oc1ccc2ccccc2c1SSc1c(O)ccc2ccccc12 |  | > 10 | 6% |  |
| O=C(O)CCCCCCCCCCCCCCc1ccc(I)cc1 [IOCANLIDIC ACID] |  | > 10 | 0% |  |
| CC(Cc1ccc(O)c(O)c1)C(C)Cc1ccc(O)c(O)c1 (stereo unspecified) [NORDIHYDROGUAIARETIC ACID] |  | > 10 | 0% |  |
| Oc1cc(O)cc(/C=C/c2ccc(O)c(O)c2)c1 [PICEATANNOL] |  | > 10 | 24% |  |
| CCOC(=O)Cc1ccc(-c2ccccc2)cc1 | -0.88 | > 10 | 18% |  |
| O=C1C(Cl)=C(N2CCOCC2)C(=O)N1c1ccc(Cl)c(Cl)c1 | 7.24 | > 10 | 0% |  |
| Oc1cc2c(cc1O)C(c1ccccc1)CNCC2 (stereo unspecified) | 8.97 | > 10 | 5% |  |
| Oc1c(I)cc(I)c(O)c1I |  | > 10 | 0% |  |
| Nc1nnc(Sc2ncc([N+](=O)[O-])s2)s1 |  | > 10 | 45% |  |
| O=[N+]([O-])c1ccc(Sc2cccc[n+]2[O-])c2nonc12 | 4.87 |  |  |  |
| O=C(O)c1ccc(SSc2ccc(C(=O)O)cn2)nc1 |  | > 10 | 8% |  |
| MERBROMIN | 10.5 |  | 0% |  |
| CCN1CCN(C(c2ccc(C(F)(F)F)cc2)c2ccc3cccnc3c2O)CC1 (stereo unspecified) | 3.72 |  |  |  |
| CISPLATIN |  |  |  | IC50 [4]: 3.82 µM |
| O=c1cc(-c2ccc(O)cc2)oc2cc(O)cc(O)c12 [APIGENIN] |  | > 10 | 17% |  |
| COc1ccc2[nH]c([S+]([O-])Cc3ncc(C)c(OC)c3C)nc2n1 (stereo unspecified) [TENATOPRAZOLE] |  | > 10 | 0% |  |
| C[C@@H]1O[C@@H](Oc2c(-c3cc(O)c(O)c(O)c3)oc3cc(O)cc(O)c3c2=O)[C@@H](O)[C@H](O)[C@H]1O |  |  |  | IC50 [4]: 3.66 µM |
| O=C(CCl)c1ccccc1 | 7.75 |  |  |  |
| ACRIFLAVINE HYDROCHLORIDE [listing 2 of 2 here] | 22 |  |  |  |

| Compound | inhibition [1] [%] | IC50 [2] [µM] | inhibition [3] | also measured |
| --- | --- | --- | --- | --- |
| C=CC(=O)c1ccc2ccccc2c1 |  | > 10 | 26% |  |
| COc1cccc(C(=O)CCN[C@@H](C)[C@H](O)c2ccccc2)c1 |  | > 10 | 19% |  |
| CN1CCc2cccc3c2[C@H]1Cc1ccc(O)c(O)c1-3 [APOMORPHINE HYDROCHLORIDE] |  | > 10 | 6% |  |
| O=C1c2c(O)cc(O)cc2O[C@H](c2cc(O)c(O)c(O)c2)[C@H]1O [AMPELOPSIN] |  | > 10 | 18% |  |
| THIMEROSAL [listing 2 of 2 here] |  | > 10 |  |  |
| c1ccc2sc(SNC3CCCCC3)nc2c1 |  | > 10 | 0% |  |
| Cc1ccccc1N(C)C(=O)c1ccc([S+]([O-])c2nccs2)c([N+](=O)[O-])c1 (stereo unspecified) | 0.13 | > 10 | 7% |  |
| NC(CO)C(=O)NNCc1ccc(O)c(O)c1O (stereo unspecified) [BENSERAZIDE HYDROCHLORIDE] | 0.39 | > 10 | 9% |  |
| C[n+]1cc2c3c(ccc2c2ccc4cc5c(cc4c21)OCO5)OCO3 [SANGUINARIUM CHLORIDE] |  | > 10 | 32% |  |
| O=C1C2CC=CCC2C(=O)N1SC(Cl)(Cl)Cl (stereo unspecified) [CAPTAN] |  | > 10 | 5% |  |
| O=C(/C=C/c1ccc(O)c2c1[C@@H](C(=O)O[C@H](Cc1ccc(O)c(O)c1)C(=O)O)[C@H](c1ccc(O)c(O)c1)O2)O[C@H](Cc1ccc(O)c(O)c1)C(=O)O |  |  |  | IC50 [4]: 3.42 µM |
| Cc1cc(C)cc(N2C(=O)CC(Sc3nc[nH]n3)C2=O)c1 (stereo unspecified) | 2.86 |  |  |  |
| C=C1C(=O)[C@]23[C@H](O)[C@H]1CC[C@@H]2[C@@]12CO[C@]3(O)C[C@@H]1C(C)(C)CC[C@@H]2O |  |  |  | IC50 [4]: 2.57 µM |
| CCCCn1c(NC(=O)c2cccs2)c(C#N)c2nc3ccccc3nc21 | -3.7 |  |  |  |
| O=C1C=CC(=O)C2=C1C1c3ccccc3C2c2ccccc21 |  | > 10 | 45% |  |
| O=C(CC1Sc2ncnn2C1=O)Nc1ccc(Br)cc1 (stereo unspecified) | 8.42 |  |  |  |
| CN(C)C(=S)SC(=S)N(C)C [BIS(DIMETHYLAMINETHIOCARBONYL)MONOSULFIDE] |  | > 10 | 0% |  |
| CC(C)N(CCC(=O)c1ccc2ccccc2c1)Cc1ccccc1 |  | 8.1 |  |  |
| CN(C)CCNc1nc2cc(O)ccc2c2c1C(=O)c1ccccc1-2 |  | > 10 | 0% |  |
| O=C(O)c1cc(O)c2c(c1)[C@H]([C@H]1c3cc(C(=O)O)cc(O)c3C(=O)c3c(O[C@@H]4O[C@H](CO)[C@@H](O)[C@H](O)[C@H]4O)cccc31)c1cccc(O[C@@H]3O[C@H](CO)[C@@H](O)[C@H](O)[C@H]3O)c1C2=O [Sennoside A] | 2.66 | > 10 | 42% |  |
| CC(C)c1ccc2oc3nc(N)c(C(=O)O)cc3c(=O)c2c1 [AMLEXANOX] | 4.03 | > 10 | 0% |  |
| Auranofin | 8.63 |  | 27% |  |

| Compound | inhibition [1] [%] | IC50 [2] [µM] | inhibition [3] | also measured |
| --- | --- | --- | --- | --- |
| CC(C)(C)c1ccc(S(=O)(=O)/C=C/C#N)cc1 [BAY-11-7085] |  | > 10 | 0% |  |
| Nc1cc2c3ccccc3ccc2c2ccccc12 | -3.88 | > 10 | 3% |  |
| CNC(=O)ON(C(C)=O)C(=O)NC [CARACEMIDE] |  | > 10 | 8% |  |
| Nc1ccc(O)c2ncccc12 | 4.98 |  |  |  |
| [O-][n+]1ccccc1S [PYRITHIONE] |  |  |  | IC50 [4]: 0.05 µM |
| COc1cc(C(=S)N2CCOCC2)ccc1O [VANITIOLIDE] |  | > 10 | 0% |  |
| COC(=O)CC[C@H](NC(=O)[C@H](CC(=O)OC)NC(=O)OCc1ccccc1)C(=O)N[C@H](C(=O)N[C@@H](CC(=O)OC)C(=O)CF)C(C)C | 11.2 |  |  |  |
| O=C(c1cc(O)c(O)c(O)c1)c1ccc(O)c(O)c1O [EXIFONE] |  | > 10 | 0% |  |
| Oc1cc2c(cc1O)[C@@H]1c3ccc(O)c(O)c3OC[C@]1(O)C2 [HEMATOXYLIN] |  | > 10 | 5% |  |
| hemin | 6.35 |  | 7% |  |
| C[C@@H]1O[C@@H](O[C@@H]2[C@@H](O)[C@H](OCCc3ccc(O)c(O)c3)O[C@H](CO)[C@H]2OC(=O)/C=C/c2ccc(O)c(O)c2)[C@H](O)[C@H](O)[C@H]1O [ACETOSIDE] |  |  |  | IC50 [4]: 4.54 µM |
| O=[N+]([O-])c1cnc(Sc2nnc(O)n2-c2ccc3c(c2)OCCO3)s1 |  | 3.8 |  |  |
| C[n+]1c2cc(N)ccc2cc2ccc(N)cc21 [EUFLAVINE] |  |  |  | IC50 [4]: 4.98 µM |
| CC[C@H](CO)Nc1nc(NCc2ccc(-c3ccccn3)cc2)c2ncn(C(C)C)c2n1 |  | > 10 | 4% |  |
| O=c1cc(-c2ccccc2)oc2cc(O)c(O)c(O)c12 [BAICALEIN] |  | > 10 | 47% |  |
| N#CSc1cc(SC#N)c(N)nc1N | 4.59 | 2.3 |  |  |
| O=c1c2ccccc2[se]n1-c1ccccc1 [EBSELEN] |  | > 10 | 14% |  |
| C[C@H]1COc2c(N3CCN(C)CC3)c(F)cc3c(=O)c(C(=O)O)cn1c23 [LEVOFLOXACIN] | 1.29 | 7.6 |  |  |
| O=c1sn(-c2cccc3ccccc23)c(=O)n1Cc1ccccc1 [TIDEGLUSIB] | 30.7 | > 10 | 22% and 0% |  |
